Reference: ChEMBL document CHEMBL4373715, “Discovery and Biological Evaluations of Halogenated 2,4-Diphenyl Indeno[1,2-b]pyridinol Derivatives as Potent Topoisomerase IIα-Targeted Chemotherapeutic Agents for Breast Cancer” (J Med Chem, 2019)

What was measured:
HCT-15 = assay: Antiproliferative activity against human HCT15 cells measured after 72 hrs by EZ-Cytox assay; assay type: functional, cell-based; details: HCT-15, 72 h
T47D = assay: Antiproliferative activity against human T47D cells measured after 72 hrs by EZ-Cytox assay; assay type: functional, cell-based
DU-145 = assay: Antiproliferative activity against human DU145 cells measured after 72 hrs by EZ-Cytox assay; assay type: functional, cell-based; details: DU-145, 72 h
HeLa = assay: Antiproliferative activity against human HeLa cells measured after 72 hrs by EZ-Cytox assay; assay type: functional, cell-based
[1] = molecular target: T1, DNA topoisomerase 1 (Homo sapiens) (UniProt P11387); assay: Inhibition of recombinant human topoisomerase 1-mediated relaxation of supercoiled pBR322 DNA at 100 uM measured after 30 mins by ethidium bromide staining based agarose gel electrophoresis relative to control
T1 sequence (whole entry): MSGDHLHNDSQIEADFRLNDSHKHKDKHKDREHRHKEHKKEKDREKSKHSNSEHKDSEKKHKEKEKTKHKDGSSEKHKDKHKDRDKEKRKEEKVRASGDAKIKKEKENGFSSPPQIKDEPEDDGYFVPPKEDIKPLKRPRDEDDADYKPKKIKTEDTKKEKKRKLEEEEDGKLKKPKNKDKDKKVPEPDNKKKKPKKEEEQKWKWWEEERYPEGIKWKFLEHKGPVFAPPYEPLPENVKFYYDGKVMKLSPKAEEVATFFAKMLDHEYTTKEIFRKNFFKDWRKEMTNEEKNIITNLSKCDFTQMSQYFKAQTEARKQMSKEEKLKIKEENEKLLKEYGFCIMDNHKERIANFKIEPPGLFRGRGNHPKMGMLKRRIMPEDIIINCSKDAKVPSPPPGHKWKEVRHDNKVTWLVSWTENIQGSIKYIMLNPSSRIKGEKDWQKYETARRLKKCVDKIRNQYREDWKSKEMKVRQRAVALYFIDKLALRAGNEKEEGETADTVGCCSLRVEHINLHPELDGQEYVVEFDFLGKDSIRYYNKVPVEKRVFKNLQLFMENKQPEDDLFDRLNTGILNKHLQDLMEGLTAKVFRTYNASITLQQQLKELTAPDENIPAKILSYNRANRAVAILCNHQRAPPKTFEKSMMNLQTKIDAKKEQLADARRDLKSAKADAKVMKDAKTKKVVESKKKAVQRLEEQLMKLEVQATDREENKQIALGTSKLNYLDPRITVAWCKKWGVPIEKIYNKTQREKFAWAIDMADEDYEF

[2] = molecular target: DNA topoisomerase 2-alpha (Homo sapiens) (UniProt P11388); assay: Inhibition of recombinant human topoisomerase 2alpha-mediated relaxation of supercoiled pBR322 DNA at 100 uM measured after 30 mins by ethidium bromide staining based agarose gel electrophoresis relative to control
Sequence of DNA topoisomerase 2-alpha (Homo sapiens) (P11388 whole entry): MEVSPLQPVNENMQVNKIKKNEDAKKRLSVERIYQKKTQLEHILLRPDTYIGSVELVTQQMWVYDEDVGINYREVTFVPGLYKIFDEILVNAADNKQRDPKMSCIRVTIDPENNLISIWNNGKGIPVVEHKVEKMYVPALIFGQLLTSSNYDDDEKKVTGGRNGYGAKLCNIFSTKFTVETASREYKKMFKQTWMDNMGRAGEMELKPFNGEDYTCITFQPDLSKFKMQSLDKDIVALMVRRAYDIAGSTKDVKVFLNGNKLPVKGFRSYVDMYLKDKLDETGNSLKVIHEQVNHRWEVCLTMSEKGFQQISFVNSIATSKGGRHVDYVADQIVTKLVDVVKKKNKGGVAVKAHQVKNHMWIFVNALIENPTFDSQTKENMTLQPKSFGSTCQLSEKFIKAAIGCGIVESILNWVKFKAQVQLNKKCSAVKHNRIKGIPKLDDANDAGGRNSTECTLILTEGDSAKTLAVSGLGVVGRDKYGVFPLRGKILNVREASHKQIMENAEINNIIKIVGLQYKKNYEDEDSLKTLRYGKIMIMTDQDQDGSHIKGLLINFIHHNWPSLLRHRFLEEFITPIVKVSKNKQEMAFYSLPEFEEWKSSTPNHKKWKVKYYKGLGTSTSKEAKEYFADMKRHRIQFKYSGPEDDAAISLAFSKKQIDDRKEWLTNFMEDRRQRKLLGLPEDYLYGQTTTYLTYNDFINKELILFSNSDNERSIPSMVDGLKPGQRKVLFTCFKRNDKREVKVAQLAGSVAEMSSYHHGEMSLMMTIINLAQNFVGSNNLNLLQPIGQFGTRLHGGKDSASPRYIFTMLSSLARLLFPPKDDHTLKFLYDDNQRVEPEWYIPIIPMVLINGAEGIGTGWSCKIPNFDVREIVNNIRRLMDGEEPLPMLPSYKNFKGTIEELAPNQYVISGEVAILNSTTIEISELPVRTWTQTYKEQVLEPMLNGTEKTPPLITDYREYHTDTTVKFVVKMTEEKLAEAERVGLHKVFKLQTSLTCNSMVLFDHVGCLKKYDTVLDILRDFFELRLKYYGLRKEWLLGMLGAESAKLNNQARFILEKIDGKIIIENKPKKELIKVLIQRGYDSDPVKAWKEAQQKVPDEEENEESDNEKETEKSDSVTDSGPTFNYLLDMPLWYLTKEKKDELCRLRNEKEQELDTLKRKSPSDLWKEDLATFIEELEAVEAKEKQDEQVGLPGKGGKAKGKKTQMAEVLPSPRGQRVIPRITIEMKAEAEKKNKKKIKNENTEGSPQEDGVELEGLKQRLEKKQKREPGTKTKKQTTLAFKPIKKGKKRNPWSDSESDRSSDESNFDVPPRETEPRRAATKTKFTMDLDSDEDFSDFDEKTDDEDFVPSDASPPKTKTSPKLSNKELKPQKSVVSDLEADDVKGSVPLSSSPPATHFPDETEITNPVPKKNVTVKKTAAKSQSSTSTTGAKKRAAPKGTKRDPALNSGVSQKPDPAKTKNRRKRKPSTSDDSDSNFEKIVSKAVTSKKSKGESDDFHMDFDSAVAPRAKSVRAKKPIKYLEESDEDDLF

[3] = molecular target: DNA topoisomerase 2-alpha (Homo sapiens) (UniProt P11388); assay: Inhibition of recombinant human topoisomerase 2alpha-mediated relaxation of supercoiled pBR322 DNA at 20 uM measured after 30 mins by ethidium bromide staining based agarose gel electrophoresis relative to control

inhibition [1]	inhibition [2]	inhibition [3]	SMILES	IC50 (HCT-15)	IC50 (T47D)	IC50 (DU-145)	IC50 (HeLa)
2.7%	95.8%	4.3%	Oc1ccccc1-c1cc(-c2cccc(C(F)(F)F)c2)nc2c1Cc1cccc(O)c1-2	2.84 µM	0.98 µM	3.38 µM	5.73 µM
14.5%	80.3%	7%	Oc1ccccc1-c1cc(-c2ccc(Cl)cc2)nc2c1Cc1c(O)cccc1-2	2.31 µM	1.25 µM	0.61 µM	1.96 µM
1.6%	90.2%	3.7%	Oc1ccc2c(c1)Cc1c(-c3ccccc3O)cc(-c3ccccc3C(F)(F)F)nc1-2	1.61 µM	1.14 µM	2.02 µM	2.92 µM
0%	67%	0%	Oc1ccccc1-c1cc(-c2ccc(F)cc2)nc2c1Cc1c(O)cccc1-2	4.31 µM	0.61 µM	2.36 µM	31.9 µM
0%	57.5%	0%	Oc1cccc2c1-c1nc(-c3ccccc3)cc(-c3ccccc3)c1C2	2.07 µM	0.74 µM	1.4 µM	3.08 µM
0%	80.2%	37.8%	Oc1cccc(-c2cc(-c3cccc(Cl)c3)nc3c2Cc2cc(O)ccc2-3)c1	1.62 µM	0.86 µM	3.21 µM	5.99 µM
0%	34.4%	0%	Oc1ccccc1-c1cc(-c2ccc(F)cc2)nc2c1Cc1cccc(O)c1-2	2.07 µM	0.74 µM	1.4 µM	3.08 µM
8.9%	71.9%	0.3%	Oc1cccc(-c2cc(-c3cccc(Cl)c3)c3c(n2)-c2c(O)cccc2C3)c1	> 50 µM	> 50 µM	17.1 µM	> 50 µM
0%	80.9%	19.2%	Oc1ccc(-c2cc(-c3ccccc3Cl)nc3c2Cc2ccc(O)cc2-3)cc1	3.04 µM	0.95 µM	0.54 µM	3.22 µM
8.8%	42.8%	8.3%	Oc1ccc(-c2cc(-c3ccccc3)c3c(n2)-c2ccc(O)cc2C3)cc1	1.27 µM	0.73 µM	0.71 µM	2.67 µM
28.1%	67.5%	11.4%	Oc1cccc(-c2cc(-c3ccccc3Cl)c3c(n2)-c2cccc(O)c2C3)c1	8.28 µM	2.88 µM	5.63 µM	7.36 µM
6.3%	89.6%	10.9%	Oc1cccc(-c2cc(-c3ccccc3Cl)nc3c2Cc2cccc(O)c2-3)c1	3.82 µM	0.12 µM	0.24 µM	5.25 µM
2.1%	74.3%	6.2%	Oc1cccc(-c2cc(-c3ccc(Cl)cc3)c3c(n2)-c2ccc(O)cc2C3)c1	> 50 µM	> 50 µM	> 50 µM	> 50 µM
2.9%	21.4%	0%	Oc1ccc2c(c1)-c1nc(-c3ccccc3O)cc(-c3ccc(Cl)cc3)c1C2	> 50 µM	> 50 µM	> 50 µM	> 50 µM
9.1%	44.6%	4.9%	Oc1cccc(-c2cc(-c3ccccc3F)nc3c2Cc2cc(O)ccc2-3)c1	3.58 µM	2.24 µM	1.62 µM	3.98 µM
15.9%	65.2%	3.3%	Oc1cccc(-c2cc(-c3ccccc3C(F)(F)F)nc3c2Cc2cccc(O)c2-3)c1	2.1 µM	1.75 µM	1.14 µM	4.69 µM
0%	98.9%	2.4%	Oc1ccccc1-c1cc(-c2ccc(C(F)(F)F)cc2)nc2c1Cc1c(O)cccc1-2	4.54 µM	1.33 µM	3.46 µM	6.14 µM

inhibition [1]	inhibition [2]	inhibition [3]	SMILES	IC50 (HCT-15)	IC50 (T47D)	IC50 (DU-145)	IC50 (HeLa)
11.7%	48.3%	5.4%	Oc1cccc(-c2cc(-c3ccc(F)cc3)nc3c2Cc2ccc(O)cc2-3)c1	1.46 µM	0.68 µM	1.06 µM	3.82 µM
7.3%	80.4%	12.4%	Oc1cccc(-c2cc(-c3ccc(Cl)cc3)c3c(n2)-c2cc(O)ccc2C3)c1	> 50 µM	> 50 µM	32.2 µM	> 50 µM
1.5%	90.5%	14.3%	Oc1cccc(-c2cc(-c3cccc(Cl)c3)nc3c2Cc2ccc(O)cc2-3)c1	0.84 µM	1.37 µM	3.28 µM	5.44 µM
18.5%	82.3%	0%	Oc1ccc(-c2cc(-c3ccc(C(F)(F)F)cc3)nc3c2Cc2cccc(O)c2-3)cc1	> 50 µM	> 50 µM	13.2 µM	> 50 µM
0%	74.5%	2.4%	Oc1ccccc1-c1cc(-c2cccc(Cl)c2)c2c(n1)-c1c(O)cccc1C2	2.46 µM	1.97 µM	2.82 µM	14.3 µM
0%	97.4%	0%	Oc1ccc2c(c1)-c1nc(-c3ccccc3)cc(-c3ccccc3O)c1C2	3.01 µM	2.33 µM	0.15 µM	3.74 µM
6.1%	75.3%	2.2%	Oc1ccc(-c2cc(-c3cccc(Cl)c3)c3c(n2)-c2cccc(O)c2C3)cc1	2.39 µM	1.92 µM	1.64 µM	1.66 µM
0%	3.5%		Oc1cccc(-c2cc(-c3ccccc3)c3c(n2)-c2cc(O)ccc2C3)c1	> 50 µM	> 50 µM	0.42 µM	> 50 µM
26.2%	27.8%		Oc1cccc(-c2cc(-c3ccc(F)cc3)nc3c2Cc2c(O)cccc2-3)c1	2.68 µM	1.72 µM	0.56 µM	6.71 µM
8.7%	4.5%		Oc1ccc(-c2cc(-c3cccc(F)c3)nc3c2Cc2cc(O)ccc2-3)cc1	3.57 µM	1.34 µM	1.44 µM	6.76 µM
0%	28.3%		Oc1ccc2c(c1)-c1nc(-c3cccc(F)c3)cc(-c3ccccc3O)c1C2	2.9 µM	0.68 µM	0.86 µM	4.22 µM
2.3%	12.9%		Oc1ccc(-c2cc(-c3cccc(C(F)(F)F)c3)nc3c2Cc2cccc(O)c2-3)cc1	4.77 µM	9.57 µM	44.1 µM	16.8 µM
8%	17.1%		Oc1ccc(-c2cc(-c3ccc(F)cc3)nc3c2Cc2cc(O)ccc2-3)cc1	4.4 µM	1.85 µM	1.59 µM	3.84 µM
11.1%	2.5%		Oc1ccc(-c2cc(-c3ccccc3)nc3c2Cc2cc(O)ccc2-3)cc1	> 50 µM	3.55 µM	2.48 µM	2.75 µM
5.3%	4.4%		Oc1ccc(-c2cc(-c3ccccc3)c3c(n2)-c2cccc(O)c2C3)cc1	1.02 µM	6.23 µM	0.37 µM	5.74 µM
0%	24.1%		Oc1ccccc1-c1cc(-c2ccccc2F)nc2c1Cc1c(O)cccc1-2	3.39 µM	1.77 µM	2.71 µM	4.18 µM
16.3%	28.1%		Oc1cccc(-c2cc(-c3ccccc3F)nc3c2Cc2ccc(O)cc2-3)c1	2.96 µM	2.97 µM	0.4 µM	3.74 µM
